From ChEMBL document CHEMBL5370548, “Discovery, optimization and biological evaluation of novel HBsAg production inhibitors” (Eur J Med Chem, 2023)
pEC50: −log10 of the molar value. Calls of active or inactive are those of the source. The calls are words filed in the database; no cut-off is given here.

Experiments:
Hepatitis B virus [1] = experiment: Antiviral activity against HBV infected in human HepG2.2.15 cells assessed as inhibition of HBV DNA incubated for 6 days with replacement of fresh media for every 72 hrs by real-time qPCR analysis; format: functional, organism-based
Hepatitis B virus [2] = experiment: Antiviral activity against HBV infected in human HepG2.2.15 cells assessed as inhibition of HBsAg level incubated for 6 days with replacement of fresh media for every 72 hrs by real-time qPCR analysis; format: functional, organism-based
[3] = Metabolic stability in human liver microsomes assessed as half life at 1 uM preincubated for 5 mins followed by NADPH addition and measured upto 60 min by LC-MS/MS analysis; format: ADME, Microsome; conditions: time < 65 min
[4] = Metabolic stability in human liver microsomes assessed as parent compound remaining at 1 uM measured upto 60 min in presence of NADPH by LC-MS/MS analysis; format: ADME, Microsome; conditions: read-out: Stability
[5] = AUC (0 to t) in ICR mouse at 1 mg/kg, iv by UPLC-MS/MS analysis; format: ADME, organism-based; set-up: dose 1 mg/kg, route iv; conditions: in vivo
[6] = Half life in ICR mouse at 1 mg/kg, iv by UPLC-MS/MS analysis; format: ADME, organism-based; conditions: in vivo
[7] = AUC (0 to infinity) in ICR mouse at 10 mg/kg, IG by UPLC-MS/MS analysis; format: ADME, organism-based; set-up: dose 10 mg/kg, route ig; conditions: in vivo, po
[8] = Half life in ICR mouse at 10 mg/kg, IG by UPLC-MS/MS analysis; format: ADME, organism-based; conditions: in vivo, po
[9] = AUC (0 to t) in ICR mouse at 10 mg/kg, IG by UPLC-MS/MS analysis; format: ADME, organism-based; set-up: dose 10 mg/kg, route ig; conditions: in vivo, po
[10] = Tmax in ICR mouse at 10 mg/kg, IG by UPLC-MS/MS analysis; format: ADME, organism-based; conditions: in vivo, po
[11] = Clearance in ICR mouse at 1 mg/kg, iv by UPLC-MS/MS analysis; format: ADME, organism-based; conditions: in vivo
[12] = Cmax in ICR mouse at 10 mg/kg, IG by UPLC-MS/MS analysis; format: ADME, organism-based; set-up: dose 10 mg/kg, route ig; conditions: in vivo, po
[13] = Volume of distribution at steady state in ICR mouse at 1 mg/kg, iv by UPLC-MS/MS analysis; format: ADME, organism-based; conditions: in vivo, read-out: Vdss
[14] = AUC (0 to infinity) in ICR mouse at 1 mg/kg, iv by UPLC-MS/MS analysis; format: ADME, organism-based; set-up: dose 1 mg/kg, route iv; conditions: in vivo
[15] = Bioavailability in ICR mouse at 1 mg/kg, iv by UPLC-MS/MS analysis; format: ADME, organism-based; conditions: in vivo
[16] = Metabolic stability in mouse liver microsomes assessed as parent compound remaining at 1 uM measured upto 60 min in presence of NADPH by LC-MS/MS analysis; format: ADME, Microsome; conditions: read-out: Stability
[17] = Metabolic stability in mouse liver microsomes assessed as half life at 1 uM preincubated for 5 mins followed by NADPH addition and measured upto 60 min by LC-MS/MS analysis; format: ADME, Microsome; conditions: time < 65 min
HepG2 2.2.15 = experiment: Cytotoxicity against human HepG2.2.15 cells by CCK-8 method; format: functional
Hepatitis B virus [18] = experiment: In vivo antiviral activity against HBV infected in uPA/SCID mouse assessed as reduction in serum HBsAg level at 10 mg/kg, po administered twice daily for 21 days and measured upto 35 days; format: functional; conditions: time <= 35 day
Hepatitis B virus [19] = experiment: In vivo antiviral activity against HBV infected in uPA/SCID mouse assessed as reduction in serum HBsAg level at 10 mg/kg, po administered twice daily for 28 days; format: functional, organism-based; conditions: time 28.0 day
[20] = Metabolic stability in mouse liver microsomes assessed as intrinsic clearance at 1 uM preincubated for 5 mins followed by NADPH addition and measured upto 60 min by LC-MS/MS analysis; format: ADME, Microsome; conditions: time < 65 min, read-out: CLH
[21] = Metabolic stability in human liver microsomes assessed as intrinsic clearance at 1 uM preincubated for 5 mins followed by NADPH addition and measured upto 60 min by LC-MS/MS analysis; format: ADME, Microsome; conditions: time < 65 min, read-out: CLH

Row | SMILES | pEC50 (Hepatitis B virus [1]) | pEC50 (Hepatitis B virus [2]) | half-life at 1 µM [3] | remaining at 1 h, 1 µM [4] | also measured
1 | CN(C)c1cc(F)nc(N2[C@@H]3CCC[C@H]2c2cnc(-c4ccccn4)nc2C3)c1 (single isomer, unassigned) | < 5.00 | < 5.00 | – | – | –
2 | COCCN(C)c1cc(F)nc(N2[C@H]3CC[C@@H]2c2cnc(-c4ncccn4)nc2C3)c1 | 7.68 | 7.51 | – | – | –
3 | COc1cc(N2[C@H]3CC[C@@H]2c2cnc(-c4ncccn4)nc2C3)cc(F)c1F | 6.77 | 6.35 | > 3.33 h | 99.1% | –
4 | COCCN(C)c1cc(F)nc(N2C[C@@H]3CC[C@H]2c2cnc(-c4ncccn4)nc23)c1 | 5.96 | < 5.00 | – | – | –
5 | COC1CCN(c2cc(F)nc(N3[C@H]4CC[C@@H]3c3cnc(-c5ncccn5)nc3C4)c2)C1 (some centres undefined) | 6.72 | 6.71 | – | – | –
6 | Fc1cc(N2CC(F)C2)cc(N2[C@@H]3CCC[C@H]2c2cnc(-c4ncccn4)nc2C3)n1 (single isomer, unassigned) | 8.15 | 7.92 | – | – | –
7 | COCCCOc1cc2c(cc1OC)-c1cc(=O)c(C(=O)O)cn1[C@H](C(C)C)C2 | 9.00 | 8.22 | – | – | AUC(0-t) [5]: 346 ng·h/mL; half-life [6]: 0.653 h; AUC(0-inf) [7]: 3080 ng·h/mL; half-life [8]: 1.12 h; AUC(0-t) [9]: 3060 ng·h/mL; Tmax [10]: 0.25 h; clearance [11]: 47.8 mL/min/kg; Cmax [12]: 1100 ng/mL; Vd [13]: 2.7 L/kg; AUC(0-inf) [14]: 349 ng·h/mL; bioavailability [15]: 88.6%
8 | COC1CN(c2cc(F)nc(N3[C@@H]4CCC[C@H]3c3cnc(-c5ncccn5)nc3C4)c2)C1 (single isomer, unassigned) | 7.80 | 7.80 | > 3.33 h | 92.3% | remaining at 1 h, 1 µM [16]: 80.4%; half-life at 1 µM [17]: > 3.33 h
9 | Fc1cc(N2CC(F)C2)cc(N2[C@H]3CC[C@@H]2c2cnc(-c4ncccn4)nc2C3)n1 | 7.74 | 7.36 | > 3.33 h | 99.7% | AUC(0-t) [5]: 3410 ng·h/mL; half-life [6]: 1.16 h; AUC(0-inf) [7]: 27400 ng·h/mL; CC50 (HepG2 2.2.15): > 100000 nM; half-life [8]: 1.23 h; AUC(0-t) [9]: 27400 ng·h/mL; Tmax [10]: 0.25 h; clearance [11]: 4.88 mL/min/kg; Cmax [12]: 9580 ng/mL; Activity (Hepatitis B virus [18]): 1.08 log10/ml; Vd [13]: 0.49 L/kg; AUC(0-inf) [14]: 3410 ng·h/mL; bioavailability [15]: 80.2%; Activity (Hepatitis B virus [19]): Active
10 | COC1CN(c2cc(F)nc(N3[C@H]4CC[C@@H]3c3cnc(-c5ncccn5)nc3C4)c2)C1 | 7.51 | 6.94 | > 3.33 h | 105% | –
11 | COCCN(C)c1cc(F)nc(N2C[C@H]3CC[C@@H]2c2cnc(-c4ncccn4)nc23)c1 | 6.81 | 6.61 | – | – | –
12 | CN(C)c1cc(F)nc(N2[C@@H]3CCC[C@H]2c2cnc(-c4ncccn4)nc2C3)c1 (single isomer, unassigned) | 8.70 | 7.85 | 1.93 h | 69% | AUC(0-t) [5]: 2480 ng·h/mL; half-life [6]: 1.65 h; AUC(0-inf) [7]: 31900 ng·h/mL; remaining at 1 h, 1 µM [16]: 52.4%; CLint scaled at 1 µM [20]: 81.4 mL/min/kg; half-life [8]: 1.95 h; AUC(0-t) [9]: 31000 ng·h/mL; Tmax [10]: 0.5 h; clearance [11]: 6.67 mL/min/kg; Cmax [12]: 9900 ng/mL; Activity (Hepatitis B virus [18]): 0.74 log10/ml; Vd [13]: 0.96 L/kg; AUC(0-inf) [14]: 2490 ng·h/mL; CLint scaled at 1 µM [21]: 10.7 mL/min/kg; half-life at 1 µM [17]: 1.12 h; bioavailability [15]: 125%
13 | COCCNc1cc(F)nc(N2[C@H]3CC[C@@H]2c2cnc(-c4ncccn4)nc2C3)c1 | 6.95 | 7.03 | – | – | –
14 | Fc1cc(NCC2CC2)cc(N2[C@H]3CC[C@@H]2c2cnc(-c4ncccn4)nc2C3)n1 | 6.98 | 6.97 | – | – | –
15 | COc1cc(F)nc(N2[C@@H]3CCC[C@H]2c2cnc(-c4ncccn4)nc2C3)c1 (single isomer, unassigned) | 7.82 | 7.59 | – | – | –
16 | CN(C)c1cc(N2[C@H]3CC[C@@H]2c2cnc(-c4ncccn4)nc2C3)cc(F)n1 | 7.05 | 5.61 | – | – | –
17 | CS(=O)(=O)N1CCN(c2cc(F)nc(N3[C@@H]4CCC[C@H]3c3cnc(-c5ncccn5)nc3C4)c2)CC1 (single isomer, unassigned) | 7.12 | 7.60 | > 3.33 h | 94% | remaining at 1 h, 1 µM [16]: 85.7%; half-life at 1 µM [17]: > 3.33 h
18 | Fc1cc(N2CC(F)C2)cc(N2[C@@H]3CCC[C@H]2c2cnc(-c4ccccn4)nc2C3)n1 (single isomer, unassigned) | < 5.00 | < 5.00 | – | – | –
19 | COCCOc1cc(F)nc(N2[C@H]3CC[C@@H]2c2cnc(-c4ncccn4)nc2C3)c1 | 7.36 | 7.14 | – | – | –
20 | Fc1cc(N2CCOCC2)cc(N2[C@H]3CC[C@@H]2c2cnc(-c4ncccn4)nc2C3)n1 | 7.41 | 7.27 | – | – | –
21 | CN(C)c1cc(F)nc(N2[C@H]3CC[C@@H]2c2cnc(-c4ncccn4)nc2C3)c1 | 7.47 | 7.39 | > 3.33 h | 86.2% | remaining at 1 h, 1 µM [16]: 63.9%; CLint scaled at 1 µM [20]: 56.2 mL/min/kg; half-life at 1 µM [17]: 1.63 h
